Test results taken from US11192900B2, “Substituted 1,6-dihydropyridinones and 1,2-dihydroisoquinolinones as bet inhibitors” (NUVATION BIO INC., priority 2018, dated 2021).

How the values were obtained:
[1] = target: BRD4-1 (Homo sapiens (Human), UniProt O60885); test: Bromodomain and Extraterminal Domain (BET) Binding Assay; details: Table 3; read-out: BRD4-1 IC50
Procedure, shortened: (§1)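 AlphaScreen displacement of biotinylated H4 (1-21) K5/8/12/16Ac peptide, in 50 mM HEPES pH 7.5, 100 mM NaCl, 1 mg/ml BSA, 0.05% CHAPS, 0.5% DMSO. Protein-compound preincubation 30 min RT, then ligand 30 min, donor then acceptor beads 60 min dark. Inhibition versus plate controls; IC50 from 10-point titrations.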

[2] = target: BRD4-2 (Homo sapiens (Human), UniProt O60885); test: as above; details: Table 3; read-out: BRD4-2 IC50
Procedure, shortened: as §1

[3] = system: MV-4-11 human acute myeloid leukemia cell line; test: Second cell viability assay in MV-4-11 (Cell Titer-Glo); assay type: cell-based; details: Homo sapiens; MV4-11, Cell Titer-Glo, 72 hrs; read-out: Cell Viability IC50 in MV4-11 cells
Method: The effects of test compounds were studied in a second cell viability assay in the MV-4-11 human acute myeloid leukemia cell line. The cells were harvested during the logarithmic growth period and counted. Cells were seeded at a count of 15000 cells per well/100 μl. After seeding, cells were incubated at 37° C., 5% CO2 for 1 hr. Cells were treated with test compounds at 8 concentrations within a desired concentration range (e.g. 5 nM-[…]) for generation of dose response curves by preparing serial dilutions of the test compound in DMSO which were further diluted with culture medium and then added to each well. The plate was further incubated for another 72 hrs in a humidified incubator at 37° C. and 5% CO2. The assay was terminated by addition of Cell Titer-Glo reagent (Promega, Madison, Wis.) at ¼ the volume of total medium per well. Contents were mixed, the plate was incubated for 10 min at room temperature and luminescence was measured. Cell viability data were plotted using GraphPad Prism (GraphPad Software, Inc., San Diego, Calif.). In addition, a nonlinear regression model with a sigmoidal dose response and variable slope within GraphPad Prism was used to calculate the IC50 value of individual test compounds.

[4] = system: 22Rv1 human prostate carcinoma cell line; test: Cell viability assay (resazurin); assay type: cell-based; details: 22Rv1, resazurin, 72 hrs
Method: The effects of test compounds were also studied in the 22Rv1 human prostate carcinoma and MDA-MB-231 human breast adenocarcinoma cell lines. The cells were harvested during the logarithmic growth period and counted. Cells were seeded at a count of 3000 cells (22Rv1) or 5000 cells (MDA-MB-231) per well/100 μl in a 96-well plate. After seeding, cells were incubated at 37° C., 5% CO2 for 24 hr. Cells were treated with test compounds at 8 concentrations within a desired concentration range (e.g. 5 nM-10 μM) for generation of dose response curves by preparing serial dilutions of the test compound in DMSO which were further diluted with culture medium and then added to each well. The plate was further incubated for another 72 hrs (22Rv1) or 96 hrs (MDA-MB-231) in humidified incubator at 37° C. and 5% CO2. The assay was terminated by addition of resazurin (# R7017, Sigma). The plate was incubated for 4 hr at 37° C., 5% CO2 and fluorescence was measured using excitation and emission wavelengths of 535 and 590 nm, respectively. Cell viability data were plotted using GraphPad Prism (GraphPad Software, Inc., San Diego, Calif.). In addition, a nonlinear regression model with a sigmoidal dose response and variable slope within GraphPad Prism was used to calculate the IC50 value of individual test compounds.

[5] = system: IEC-6 rat intestinal epithelial cell line; test: IEC-6 cell viability, Protocol B (toxicity to non-cancerous cells); assay type: cell-based; details: Rattus norvegicus; IEC-6, 4000 cells per well, 48 hrs
Method: The effects of test compounds were also studied in the IEC-6 rat intestinal epithelial cell line to assess potential toxicity to non-cancerous cells. The cells were harvested during the logarithmic growth period and counted. In Protocol A, cells were seeded at a count of 3000 cells per well/100 μl in a 96-well plate. After seeding, cells were incubated at 37° C., 5% CO2 for 24 hr. Cells were treated with test compounds at 8 concentrations within a desired concentration range (e.g. 5 nM-10 μM) for generation of dose response curves by preparing serial dilutions of the test compound in DMSO which were further diluted with culture medium and then added to each well. The plate was further incubated for another 96 hrs in humidified incubator at 37° C. and 5% CO2. The assay was terminated by addition of resazurin (# R7017, Sigma). The plate was incubated for 4 hr at 37° C., 5% CO2 and fluorescence was measured using excitation and emission wavelengths of 535 and 590 nm, respectively. Cell viability data were plotted using GraphPad Prism (GraphPad Software, Inc., San Diego, Calif.). In addition, a nonlinear regression model with a sigmoidal dose response and variable slope within GraphPad Prism was used to calculate the IC50 value of individual test compounds. Protocol B was the same as Protocol A except that cells were seeded at a count of 4000 cells per well/100 μl in a 96-well plate, and the incubation with test compound was for 48 hrs instead of 96 hrs.

Row | IC50 [1] | IC50 [2] | IC50 [3] | IC50 [4] | Structure (SMILES) | IC50 [5]
1 | 8.15 µM | 0.292 µM | 2.46 µM | 6.66 µM | CC(=O)Nc1ccc(Oc2c(C)cc(F)cc2C)c(-n2cc(C)c(=O)c3ccccc32)c1 [Compound 710, N-(4-(4-fluoro-2,6-dimethylphenoxy)-3-(3-methyl-4-oxoquinolin-1(4H)-yl)phenyl)acetamide] | 7.55 µM
2 | 1.37 µM | 0.011 µM | 0.526 µM | 1.27 µM | CCS(=O)(=O)Nc1ccc(Oc2c(C)cc(F)cc2C)c(-n2cc(C)c(=O)c3ccccc32)c1 [Compound 570, N-(4-(4-fluoro-2,6-dimethylphenoxy)-3-(3-methyl-4-oxoquinolin-1(4H)-yl)phenyl)ethanesulfonamide] | 2.86 µM
